Format in all cases: functional
The species named for assay [1] is Mus musculus. Description: Compound was evaluated for mutagenicity after threshold range.
For assay [2], the species on record is Mus musculus. Description: Compound was evaluated for Carcinogenicity to produce 0.5 tumors per mouse (B.5).
For assay [3], the species on record is Mus musculus. The assay can be described thus: Compound was evaluated for low level mutagenicity.
For assay [4], the species on record is Mus musculus. The assay can be described thus: Compound was evaluated for Carcinogenicity based on concentration necessary to produce one tumor per mouse (Strain A).

`NC(=O)Nc1cc(NC(N)=O)cc(N(CCCl)CCCl)c1`: the “Log 1/Th+200” value in assay [1] is recorded as -0.01. Further, the “Log 1/B.5” value in assay [2] is given as 5.43. Also, the “Log 1/B+100” value in assay [3] was 0.31. In assay [4], the “Log 1/B+1” value stood at 4.26.

On to `ClCCN(CCCl)c1ccc(/C=C/c2ccccc2)cc1`, for which the “Log 1/Th+200” value in assay [1] stood at 2.04. In assay [3], the “Log 1/B+100” value was determined as 1.99.

These data come from ChEMBL document CHEMBL1121662 (1981).
